Test results from patent publication US20250387410A1, “TREATMENT OF ANTI-VEGF REFRACTORY OPHTHALMIC RETINAL EYE CONDITIONS” (Eye Co Pty Ltd., priority 2022, published 2025).
“And” between values parts separate entries of the source, which are not always exact repeats. Equal values may be shown once. “Also recorded” adds a separate entry of the source.

What was measured:
[1] = system: Ccl2, Il-6, Il-8 expression in MIO-M1 cells; assay: IL-1β stimulation of MIO-M1 cells, cytokine gene expression by QRT-PCR; assay type: cell-based, human; conditions: 1 μg/μl steroid, 1 ng/μl IL-1β, 12 h, versus IL-1β alone
Description: The immortalised retinal cells used were as follows: MIO-M1 cells (Muller cell-derived; Müller 1 Moorefields, Institute of Ophthalmology, Dr A. Limb, Institute of Ophthalmology, University College, UK); ARPE19 (RPE-derived; ATCC CRL-2302, American Tissue Culture Collection, VA, USA); and 661W cells (photoreceptor-like derived; kindly gifted by Dr Muayyad R. Al-Ubaidi, Department of Cell Biology, University of Oklahoma Health Sciences Centre, Oklahoma City, OK, USA). Cells were authenticated and validated from Cell Bank Australia.
IL-1β and TNF-α were administered to MIO-M1 cells to initiate an inflammatory response in order to test the anti-inflammatory properties of the selected corticosteroids. MIO-M1 cells were grown to a cell density of 50,000 cells per well in a 24 well plate using growth media and foetal bovine serum as described (Section 2.1.1). MIO-M1 cells were challenged with either 1 ng/μl of IL-1β or TNF-α (R&D Systems, MN, USA). Experimental wells were treated with either 1 μg/μl FA, TA or Dexamethasone. […]
Following purification of RNA, cDNA was synthesized using the Bioline Tetro kit (Bioline, Australia) as per the manufacturer's instructions. Quantitative Real Time Polymerase Chain Reaction (QRT-PCR) was undertaken to profile gene expression changes in animal and cell culture samples. […] Data was analysed using the QuantStudio 12K Flex Software (Applied Biosystems, USA).

[2] = system: subjects with geographic atrophy (GA) secondary to AMD; assay: Phase 1b single-dose dose-escalation intravitreal trial in geographic atrophy; assay type: in vivo, human
Description: To evaluate the safety and tolerability of a single-dose intravitreal (IVT) injection of 1 mg/0.1 mL and 2 mg/0.1 mL Fludrocortisone acetate (FCA) in subjects with geographic atrophy (GA) secondary to Age-Related Macular Degeneration (AMD).
Methods: This was a two-part dose-escalation prospective study. Part-1 involved a single participant treated with 1 mg/0.1 ml and monitored up to 28-days before being reviewed by a safety review committee. Two subsequent participants were then dosed with the same dose. Part-2 involved a single participant dosed with 2 mg/0.1 ml and monitored up to 28-days when a further 5 participants were dosed. All participants were followed up for 6-months after baseline.
A full ophthalmic assessment was performed at study visits which included GA area, best-corrected visual acuity (BCVA), low-luminance BCVA and intra-ocular pressure (IOP). Adverse events (AE) were reported from the first dose of FCA until the end-of-study visit.
This single-centre, phase 1b prospective, open-labeled, single-dose, dose-escalation clinical trial was conducted on 9 participants enrolled at a single site between August 2019 to April 2021. All patients were followed up for 6 months after baseline. Ethics approval was obtained before commencement and the trial was listed on the Australian and New Zealand Clinical Trial Registry (accessible via www.anzctr.org.au; ANZCTR no. 12618001308280). An independent data and safety committee provided oversight of the clinical trial. This study adhered to the tenets of the Declaration of Helsinki. Informed consent was obtained from all participants before enrolment into the study.
Fludrocortisone acetate was formulated for intravitreal administration as a powder solution for injection to ensure long-term stability similar to other cortico-steroids (15). Vials contained 10 mg of FCA powder and were reconstituted with sterile sodium chloride solution (0.9%) according to the appropriate dosage prior to injection.
Inclusion criteria referring the study eye were as follows: diagnosis of GA secondary to AMD confirmed using fundus autofluorescence (FAF) imaging, GA area between ≥1.9 and ≤17 mm2 (1 and 7 disc areas (DA) respectively), best corrected visual acuity (BCVA) of 24 letters or better using Early Treatment Diabetic Retinopathy Study (ETDRS) charts.
A full ophthalmic assessment was performed at each study visit which included GA area assessed through FAF imaging, BCVA, lower-luminance BCVA (LL-BCVA) and intra-ocular pressure (IOP). Participants were assessed at screening, baseline, day 1, day 7, day 14, day 28, day 60, day 90 and day 150 (end of study). Blood and urine samples were collected for safety analysis at screening, baseline, day 7, day 28 and day 150.
Part 1 of the study involved a single participant treated with 1 mg/0.1 ml FCA to assess safety and tolerability. This participant was followed-up for 28 days before the results were reviewed by an independent data safety monitoring committee (DSMB). Subsequent to approval by the DSMB, a further 2 participants were treated with 1 mg/0.1 ml FCA and followed-up for a further 28 days after treatment before commencement of part 2.
Part 2 involved a single dose of 2 mg/0.1 ml of FCA in a single participant and followed-up for 28 days like part 1. The DSMB reviewed the results prior to enrolment of the remaining 5 participants.
Fundus auto-fluorescence was captured using Heidelberg Spectralis (Heidelberg Engineering, Heidelberg, Germany). The assessment of GA size and progression was performed using FAF was performed by 2 graders (T.H and E.C.) in a blinded manner using Heidelberg region finder software version 2.6.2.0 (FIG. 1), a semi-automated program used to quantify atrophic areas. Baseline FAF images were defined and used to assess subsequent visits using the region finder software. In cases where there was a discrepancy of more than 20% between the two graders, a third grader (A.C.) evaluated the images. […]

[3] = fellow (uninjected) eye of treated participants, day 150

Question: Which results are given for CC(=O)OCC(=O)[C@@]1(O)CC[C@H]2[C@@H]3CCC4=CC(=O)CC[C@]4(C)[C@@]3(F)[C@@H](O)C[C@@]21C [FA, 9-α-Fluoro-11 β. 17 α, 21-trihydroxy-4-pregnene-3, 20 dione acetate]?
Answer: Ccl2, Il-6, and Il-8 expression after IL-1β stimulation [1]: drastically reduced; also recorded: suppressed to near baseline levels; loss of BCVA letters in the initial pilot participant ([2]; 1 mg/ml, day 14, one participant, deemed most likely unrelated by the DSMB): 22 letters; adverse event in one participant ([2]; 2 mg/ml, after day 90, study eye, resolved after 1 week): nasal subconjunctival haemorrhage; other adverse events throughout the study ([2]; all 9 participants): No other adverse events; systemic adverse event ([2]; dose escalation study, 9 participants): no systemic adverse event; BCVA mean change from baseline, fellow eye [2, 3]: 4.88 ± 8.37 letters; IOP mean change from baseline, fellow eye [2, 3]: −0.625 ± 4.24 mmHg; LLVA mean change from baseline, fellow eye [2, 3]: 4.5 ± 11.49 letters; GA area mean change from baseline, fellow eye ([2]; fellow (uninjected) eye of treated participants, over 6 months, listed as FCA): 0.62 mm^2 and 0.62 ± 4.49 mm^2; clinical safety and tolerability ([2]; intravitreal, patients with GA secondary to AMD): clinically safe and well-tolerated; serious AEs (ocular or systemic) ([2]; single IVT 1 mg/0.1 ml or 2 mg/0.1 ml, 9 participants, 6 months): no serious AEs; cataract development / lens opacity ([2]; single IVT 1 or 2 mg/0.1 ml, 6 months follow-up, no formal lens grading, listed as FCA): no participants required/underwent cataract surgery; also recorded: not observed; also recorded: no evidence; increase of IOP ([2]; single IVT 1 or 2 mg/0.1 ml, study eye, 6 months follow-up, listed as FCA): No significant increases; also recorded: not observed; also recorded: did not increase; also recorded: no evidence; IOP mean change from baseline, study eye ([2]; study eye, day 150 compared to baseline, listed as FCA): −0.25 mmHg and −0.25 ± 4.06 mmHg; GA area mean change from baseline, study eye ([2]; study eye, over 6 months, FAF region finder, listed as FCA): 0.5 mm^2 and 0.5 ± 5.69 mm^2; changes in body temperature, heart rate, systolic or diastolic blood pressure ([2]; throughout the study): no significant changes
